Assay type in all cases: physicochemical
Series [1] is described as follows: Microscope observation of particle morphology. Conditions: hydrochloride. The text has this:
The morphology of an active pharmaceutical substance plays an important role in drug performance, and has a profound impact on handling during milling processes and during drug product manufacturing. […].

The nature of series [2]: Exposure of Form XX in controlled humidity cells, 9 days at 30 C, tested by XRD.
A short description of series [3]: Exposure in controlled humidity cells, 7 days at room temperature, tested by XRD and KF titration. Set-up: Water content: unit not given here. As to conditions: for Water content: KF titration. As to the method:
200 mg of Fexofenadine HCl Form XVI was spread as a thin layer on an open dish, and then put in controlled humidity cells of 0, 20, 40, 60 and 80% RH for 7 days at room temperature. The samples were tested by XRD and by KF titration.

Series [4] in a line: Heating under atmospheric pressure, then tested by XRD. Conditions: 10 h.

Counter-ions that a name gives are not always drawn.

Take `CC(C)(C(=O)O)c1ccc(C(O)CCCN2CCC(C(O)(c3ccccc3)c3ccccc3)CC2)cc1` (centres unmarked) [Fexofenadine HCl form I, fexofenadine hydrochloride, reference compound]: the Particle morphology entry in series [1] (listed as fexofenadine HCl form I) is “needles morphology”.

As to `CC(C)(C(=O)O)c1ccc(C(O)CCCN2CCC(C(O)(c3ccccc3)c3ccccc3)CC2)cc1` (centres unmarked) [Fexofenadine HCl Form XX, fexofenadine hydrochloride], the “Crystal Form content by XRD” value in series [2] (40% RH) is “XVI + XX”; in series [2] (60% RH), “XVI + XX”; in series [2] (80% RH), “XVI”. In addition, the Water content in series [2] (40% RH) is given as 4.9; in series [2] (60% RH), 5.2; in series [2] (80% RH), 7.8. The Particle morphology entry in series [1] (listed as fexofenadine HCl form XX) is “small rod shape particles”.

With `CC(C)(C(=O)O)c1ccc(C(O)CCCN2CCC(C(O)(c3ccccc3)c3ccccc3)CC2)cc1` (centres unmarked) [Fexofenadine HCl Form XVI, fexofenadine hydrochloride], the Water content in series [3] (0% RH) was found to be 4.2; in series [3] (20% RH), 7.0; in series [3] (40% RH) it was 7.3; in series [3] (60% RH) it was 7.3; in series [3] (80% RH) it was 8.3. The “Crystal Form content by XRD” value in series [3] (0% RH, hydrochloride) is “mixture of Fexofenadine HCl Form XVI and Fexofenadine HCl Form XX”; in series [3] (20% RH, hydrochloride), “XVI”; in series [3] (40% RH, hydrochloride), “XVI”; in series [3] (60% RH, hydrochloride) it was “XVI”; in series [3] (80% RH), “XVI”. The “Resulted Form” value in series [4] (65 C.) was “XVI”; in series [4] (80 C.), “XVI + Amorphous”; in series [4] (100 C., hydrochloride), “mixture of Fexofenadine HCl Form XVI and amorphous Form”; in series [4] (100 C., listed as XVI, hydrochloride), “XVI + Amorphous”.

`CC(C)(C(=O)O)c1ccc(C(O)CCCN2CCC(C(O)(c3ccccc3)c3ccccc3)CC2)cc1` (centres unmarked) [mixture of Fexofenadine HCl Form XVI and Fexofenadine HCl Fo] [fexofenadine hydrochloride]: the Water content is reported as 4.2 in series [3] (0% RH); 7.0 in series [3] (20% RH); 7.3 in series [3] (40% RH); 7.3 in series [3] (60% RH); 8.3 in series [3] (80% RH). Besides, the “Crystal Form content by XRD” value in series [3] (0% RH, hydrochloride) is listed as 85% XVI, 15% Form XX; in series [3] (20% RH, hydrochloride) it was 93% XVI, 7% Form XX; in series [3] (40% RH, hydrochloride), 96% XVI, 4% Form XX; in series [3] (60% RH, hydrochloride) it was 96% XVI, 4% Form XX; in series [3] (80% RH), “XVI”.

For the origin of these results see patent US20090082398A1 (Teva Pharmaceutical Industries Ltd., priority 2004, published 2009).
